According to patent US20220378821A1, “METHODS OF TREATING BRAF-MUTATED CANCER CELLS” (EFFECTOR THERAPEUTICS, INC., priority 2019, published 2022):
Like-named read-outs stand apart in the source and are kept apart here.

Columns and labels:
[1] = test system: COLO 205 xenografts (BRAF mutant); experiment: In vivo tumor growth inhibition, COLO 205 xenografts; conditions: for tumor growth inhibition (TGI): COLO 205 xenografts
Description: To test whether eIF4E inhibition affected the growth of BRAF mutant tumors in vivo, COLO 205 cells were grown as tumor xenografts in athymic nude mice and animals were dosed daily with vehicle or Compound Y, having the following structure
(§1) Athymic nude mice were purchased from Simonsen Laboratories (Gilroy, Calif.). C.B-17 SCID mice were purchased from Charles River (Hollister, Calif.). All animal studies were carried out in accordance with the guidelines established by the Institutional Animal Care and Use Committee at Explora BioLabs (San Diego, Calif.). COLO 205 and RKO cells were purchased from ATCC (Manassas, Va.). COLO 205 cells were maintained in RPMI-1640 supplemented with 10% fetal bovine serum. RKO cells were maintained in DMEM supplemented with 10% fetal bovine serum. For COLO 205 xenograft studies, COLO 205 (2×10^6) cells were implanted subcutaneously into athymic nude mice. On day 8 post-implant, tumors were measured (˜103 mm^3) and tumor-bearing animals were randomized into treatment groups. For RKO xenograft studies, RKO cells (5×10^6) were implanted subcutaneously into C.B-17 SCID mice. On day 11 post-implant, tumors were measured (˜153 mm^3) and tumor-bearing animals were randomized into treatment groups. Animals were dosed orally with vehicle or Compound Y daily. Tumor size and body weight were monitored during the course of the study. Tumor size was measured in length and width with a caliper 2× per week. The tumor volume was calculated by the formula L×W×W/2 according to NCI standards.

[2] = test system: RKO xenografts (BRAF mutant); experiment: In vivo tumor growth inhibition, RKO xenografts
Description: as §1

[3] = test system: panel of 100 tumor cell lines; experiment: OncoPanel apoptosis profiling (activated caspase-3); format: cell-based
Description: (§2) In order to assess cellular phenotypes arising from eIF4E inhibition, Compound X was profiled in a panel of 100 tumor cell lines. Compound X was profiled using the OncoPanel Cell-Based Profiling Service (Eurofins Pharma Discovery Services, St. Charles, Mo.). Briefly, cell lines used in the panel were grown in RPMI 1640, 10% FBS, 2 mM L-alanyl-L-glutamine, 1 mM Na pyruvate, or a special medium. Cells were seeded into 384-well plates and incubated in a humidified atmosphere of 5% CO2 at 37° C. Compounds were added the day following cell seeding. At the same time, a time zero untreated cell plate was generated. After a 3-day incubation period, cells were fixed and stained with fluorescently-labeled antibodies and nuclear dye to allow imaging of nuclei, apoptotic cells and mitotic cells.
(§3) was serially diluted in half-log steps from 10 μM and assayed over 10 concentrations with a maximum assay concentration of 0.1% DMSO. Automated fluorescence microscopy was carried out using a Molecular Devices ImageXpress Micro XL high-content imager, and images were collected with a 4× objective. 16-bit TIFF images were acquired and analyzed with MetaXpress 5.1.0.41 software.
An antibody to activated caspase-3 was used to label cells from early to late stage apoptosis (Thornberry et al., 1998, Science 281:1312-1316). […] A 5-fold induction in the caspase-3 signal was scored as a significant apoptosis induction.

[4] = test system: panel of 100 tumor cell lines; experiment: OncoPanel cell proliferation profiling (nuclear dye relative cell count); format: cell-based; conditions: for IC50: across the panel of 100 cell lines
Description: as §2, §3
Cell proliferation was measured by the fluorescence intensity of an incorporated nuclear dye. The output is referred to as the relative cell count, where the measured nuclear intensity is transformed to percent of control (POC) using the following formula: […]
where Ix the nuclear intensity at concentration x, and I0 is the average nuclear intensity of the untreated vehicle wells.
Cellular response parameters were calculated using nonlinear regression to a sigmoidal single-site dose response model:
where y is a response measured at concentration x, A and B are the lower and upper limits of the response, C is the concentration at the response midpoint (EC50), and D is the Hill Slope (Fallahi-Sichani et al., 2013, Nat. Chem. Biol. 9:708-714).
Cell count IC50 is the test compound concentration at 50% of maximal possible response.

SMILES | tolerability (body weight) ([1]; COLO 205 study, no significant changes in body weight) | tumor growth inhibition (TGI) ([1]; 3 mg/kg orally daily) | tumor growth inhibition (TGI) ([1]; 30 mg/kg orally daily) | tolerability (body weight) ([2]; RKO study, no significant changes in body weight) | tumor growth inhibition (TGI) ([2]; RKO xenografts, 30 mg/kg orally daily) | BRAF mutant cell lines among those with significant induction of apoptosis ([3]; of the 36 cell lines with >5-fold activated caspase-3) | cell lines that showed significant induction of apoptosis (>5-fold induction of activated caspase-3) ([3]; of the panel of 100 cell lines) | IC50 ([4]; 72 h, 3-day incubation, read-out: median IC50 value for cell proliferation) | IC50 ([4]; upper end printed as >10,000 nM, read-out: distribution of IC50 values for cell proliferation) | cell lines tested with IC50 values below the median ([4]; hematological, head and neck, NSCLC, melanoma, uterine and pancreatic tumor cell lines)
Cc1cc(-c2cc(Cl)ccc2OCCn2c(C)nc3cc(C(F)(F)F)c(N4CCN(C)CC4)c(C#N)c3c2=O)c2scc(C(=O)O)c2n1 [Compound Y] | well tolerated | 49% | 89% | well tolerated | 54% | – | – | – | – | –
Cc1cc(-c2cc(Cl)ccc2OCCn2c(C)nc3cc(C(F)(F)F)c(CN4CCN(C)CC4)c(C#N)c3c2=O)c2scc(C(=O)O)c2n1 [Compound X] | – | – | – | – | – | 10 | 36 | 116 nM | 12 to 10000 nM | > 74%
